Measured values from patent US8900851B2, “Multi-well platform” (The Research Foundation for the State University of New York, priority 2008, dated 2014).

Tests used:
MCF-7 cells = assay: transwell chamber migration assay, MCF-7 cells; format: cell-based, human; conditions: FIG. 17B
Protocol: (§1) MCF-7 cells were left untreated or treated with an inhibitor of DNA methyltransferase, […] (5-aza-dC). Expression of C43 was monitored by a real time RT PCR approach and cell migration ability was determined by a transwell chamber migration assay.

C43 [1] = assay: C43 expression by real time RT PCR in MCF-7 cells; format: cell-based, human; conditions: MCF-7 cells treated vs untreated, FIG. 17A
Protocol: as §1

C43 [2] = assay: C43 expression by real time RT PCR in MDA-MB-231 cells; format: cell-based, human
MDA-MB-231 cells = assay: transwell chamber migration assay, MDA-MB-231 cells; format: cell-based, human
[3] = test system: human breast cancer MDA-MB-231 cells; assay: 3D invasion assay with well-established inhibitory compounds; format: cell-based; conditions: data not shown
Description: To increase the throughput as well as to standardize and automate the readout using imaging software, we have designed and tooled a 96-well plate with a 2.1 mm3 pit in the center of each well. This tooled plate restricts the cell/matrix mixture to an identical pit (size and location) within each well, thus permitting automated microscopic imaging of cell invasion (FIG. 19). To test if imaging acquisition and data analysis can be automated, we have employed a motorized stage (Prior Scientific, Inc.) installed on the existing Nikon TE2000s inverted microscope. The automated microscopy system is controlled by the NIS-Elements imaging software (Nikon) for imaging acquisition and data analysis. Using a 10× objective, we have shown that it takes 6 minutes to scan the entire 96 well plate. To quantitatively analyze cells that invade into the matrix, using both phase contrast and nuclear-stained images is optimal.
To establish the efficacy of the assay for screening libraries, we have tested the effect of well-established inhibitory compounds on cell invasion. […] Moreover, this 3D invasion assay is simple, precise, easy to replicate, and has multiple applications.

[4] = test system: HT1080 and/or human breast cancer MDA-MB-231 cell; assay: 3D invasion assay, positive controls; format: cell-based; conditions: positive controls in culture medium, HT1080 and/or MDA-MB-231 cells
Protocol: HT1080 cells and/or human breast cancer MDA-MB-231 cells (4×10^7/ml) mixed with type I collagen (1.5 mg/ml at final) are dispensed into the cell-holding wells in invasion assay plates (2 ul/well, optimum volume) using the liquid handling system at 4° C. working temperature to prevent the collagen from solidifying within the liquid handling system. After dotting, the plate is inserted in an incubator chamber at 37° C. for 15 min followed by the addition of type I collagen to cover the gelled cell aggregates. […] Images are acquired from transmission (phase contrast) and fluorescence (DAPI) sources by an external light shutter device that gathers two images per time point in time-lapse sequences. […] Data analysis will be performed using NIS-Element imaging software (Nikon) based on pre-determined criteria.
The following steps will be performed to screen the compound library targeting cancer cell migration/invasion using the automated 3D invasion HTS system: 1) Cell plating: HT1080 cells and/or human breast cancer MDA-MB-231 cells are used for selecting inhibitory compounds because these cells display invasive ability and represent mesenchymal cancer cells. […] Images acquired by an automated Nikon inverted microscope (TE2000s) equipped with a motorized stage (Prior Scientific) are then analyzed using the NIS-Elements software (Nikon). […]

MDA-MB-435 cells [5] = assay: cell morphology of MDA-MB-435 cells expressing shRNA (DIC microscopy); format: cell-based, human; conditions: MDA-MB-435 cells cultured on plastic dishes
Description: (§2) Left panel: Loss of invasive ability of MDA-MB-435 cells by downregulation of C43. MDA-MB-435 cells expressing Luciferase shRNA control, C43 shRNA-2 and -3 were examined by the 3D invasion assay after 8 days. […] MDA-MB-435 cells expressing Luciferase shRNA shRNA, C43 shRNA-2 and -3 cultured on plastic dishes were observed under inverted microscopy with differential interference contrast (DIC).

C43 [6] = assay: shRNA effect on endogenous C43 expression, real time RT PCR in MDA-MB-435 cells; format: cell-based, human; conditions: retroviral shRNA delivery
Protocol: A) Overexpresison of C43 enhanced cell migration. COS-1 cells and MCF-7 cells transfected with vector control (1 & 4), C43 (2 & 5) or MT1-MMP (3 & 6, positive control) cDNAs were evaluated by a Transwell Chamber migration assay after 6 hours. The cells were fixed and migratory cells were counted under microscopy with 20× objective. Ten fields were examined for each transfected cells. Each bar represents the mean±SE. B) Enhanced cell migration in MCF-7 cells expressing C43-GFP chimera. Minimally invasive human breast cancer MCF-7 cells stably transfected with GFP control and C43-GFP chimeric cDNA were mixed with type I collagen and dotted onto a 96-well plate. […] Cell migration was determined under microscopy. […]
Small interfering oligonucleotides specific for either C43 or luciferase (control) to express short hairpin RNA (shRNA) were designed using an online software system (Block-iT RNAi Designer; Invitrogen) for mammalian RNA interference. Specific 21-nucleotide sequences spanning nucleotides […] of the human C43 gene (see FIG. 2: SEQ ID NO: 1) and nucleotides 103-123 of luciferase from firefly Pyrocoelia pectoralis as a control were synthesized by Operon Biotechnologies, Inc. Annealed double stranded oligonucleotides were cloned into the RNAi-Ready pSIREN-Retra Q vector (Clontech). […]

MDA-MB-435 cells [7] = assay: cell proliferation of MDA-MB-435 cells expressing shRNA; format: cell-based, human; conditions: MDA-MB-435 cells in culture
Description: as §2
(§3) As summarized in FIG. 1, 2×10^6 MDA-MB-435 cancer cells expressing either C43 shRNA or luciferase shRNA control were orthotopically injected into mammary tissue of nu/nu immunodeficient mice. Tumor growth was measured with calipers twice a week. Tumor size was determined using the formula: (tumor size=tumor diameter(×)square root of tumor diameter(÷)2). […] In contrast to in vivo tumor growth, downregulation of C43 had no effect on cancer MDA-MB-435 cell proliferation in tissue culture (not shown), emphasizing the unique role of C43 on protease-independent aspects of cell invasion and tumor progression.

MDA-MB-435 cells [8] = assay: 3D invasion assay, MDA-MB-435 cells expressing shRNA; format: cell-based, human; conditions: 3D invasion assay after 8 days, vs Luciferase shRNA control
Description: as §2
The following methodology permits the detection of cancer cell invasion into a collagen matrix and the inhibitory activity of anti-cancer drugs. This assay is useful in identifying pharmacologic agents (drugs) that interfere with cancer progression. […] Invading cancer cells leaving the perimeter of the original collagen droplet are readily visualized extending into the surrounding collagen matrix after 18 h incubation. Both qualitative and quantitative analyses are performed microscopically. The invasive ability of cancer cells (cells outside the original droplet), as well as the effect of pharmacologic agents on the cancer cell invasion, can be determined microscopically. The effect of pharmacologic agents on invasion of cancer cells is determined by counting invading cells in the presence versus the absence of pharmacologic agents. […] This assay will be readily adaptable for high throughput screening of libraries of compounds that may be useful for cancer treatment. […]

MDA-MB-435 cancer cells = assay: orthotopic implantation of MDA-MB-435 cells expressing shRNA into immunodeficient mice; format: in vivo, nu/nu immunodeficient mice
Description: FIG. 1 depicts tumor growth and survival curves comparing the effect of C43 shRNA (SEQ ID NO: 2) (FIG. 1A) and control luciferase shRNA (FIG. 1B) on tumor appearance, progression, and survival following orthotopic implantation of MDA-MB-435 breast cancer cells into immunodeficient mice.
as §3

C43 [9] = assay: Northern blot analysis of C43 in HT1080 cells; format: cell-based, human; conditions: FIG. 11A
Description: Total RNAs of MCF-7 cells, HT1080 or HT1080 cells treated with Con A were probed with p^32-labeled C43 probe. A single 9.5 kb mRNA transcript corresponding to C43 was detected (arrowhead). Con A enhances C43 expression in HT1080 cells. B) Expression of C43 in transfected COS-1 cells: COS-1 cells transfected with vector or C43-Myc chimera were examined by Western blotting using anti-Myc antibody. C43 was detected as a 150 kDa protein band along with degradation products.

| Molecule | cell morphology (MDA-MB-435 cells [5]) | endogenous C43 expression (C43 [6]) | cell proliferation (MDA-MB-435 cells [7]) | cell invasive ability (MDA-MB-435 cells [8]) | also measured |
| --- | --- | --- | --- | --- | --- |
| Nc1ncn([C@H]2C[C@H](O)[C@@H](CO)O2)c(=O)n1 [5-aza-dC, a-aza-deoxycytined] |  |  |  |  | cell migration (MCF-7 cells): enhanced; endogenous C43 expression (C43 [1]): increased; C43 expression (C43 [2]): No effect; cell migration (MDA-MB-231 cells): No effect |
| COc1cccc(-c2cc(=O)c3ccccc3o2)c1N [PD98059] |  |  |  |  | inhibition of cell invasion [3]: dose-dependent inhibition; cell invasion [4]: block |
| C43 shRNA-2: C43 shRNA sequence GTGGAAGACCATATTGAATAT, nt 1104 | Change of cell morphology | significantly decrease | does not alter | loss of cell invasive ability |  |
| C43 shRNA-3: C43 shRNA sequence GCCTCTCCATCCATCATACATT, nt 1997 | Change of cell morphology | significantly decrease | does not alter | loss of cell invasive ability |  |
| C43 shRNA: 21-nucleotide C43 shRNA CCTCTCCATCCATCATACATT spanning nucleotides 1735-1757 of SEQ ID NO: 1 (chemistry not given here; listed as Homo sapiens) |  |  | no effect |  | tumor appearance and progression (MDA-MB-435 cancer cells; 2×10^6 MDA-MB-435 cells orthotopically injected into mammary tissue, vs luciferase shRNA control, FIG. 1A): delayed; survival (MDA-MB-435 cancer cells; orthotopic MDA-MB-435, vs luciferase shRNA control mice, FIG. 1B): prolonged |
| Concanavalin A [Con A] |  |  |  |  | C43 expression (C43 [9]): enhances |
